Like-named read-outs stand apart in the source and are kept apart here.
Legend:
[1] = test system: Salmonella typhimurium tester strains TA97a, TA98, TA100, TA102, TA1537 and TA1538
Excerpt: The second property that is important in testing a compound for use in methods described herein is mutagenicity. The most widely used mutagen/carcinogen screening assay is the Ames test. This assay is described by D.M. Maron and B.N. Ames in Mutation Research 113:173 ( 1983) and a specific screen is described in detail in Example 17, below. The Ames test utilizes several unique strains of Salmonella typhimurium that are histidine- dependent for growth and that lack the usual DNA repair enzymes. The frequency of normal mutations that render the bacteria independent of histidine (i.e., the frequency of spontaneous revertants) is low. The test allows one to evaluate the impact of a compound on this revenant frequency.
Because some substances are not mutagenic by themselves, but are converted to a mutagen by metabolic action, the compound to be tested is mixed with the bacteria on agar plates along with the liver extract. The liver extract serves to mimic metabolic action in an animal.
The mixtures are allowed to incubate. Growth of bacteria (if any) is checked by counting colonies.
In this example the compounds described herein are tested for their dark mutagenicity using an Ames assay. The procedures used for the Salmonella mutagenicity test as described in detail by Maron and Ames were followed exactly. Maron, D.M. and B.N. Ames, Mutation Research 113: 173 ( 1983). A brief description for each procedure is given here. The tester strains TA97a, TA98, TA 100, TA102, TA1537 and TA1538 were obtained from Dr. Ames. TA97a, TA98, TA1537 and TA1538 are frameshift tester strains. TA100 and TA102 are base-substitution tester strains. Upon receipt each strain was cultured under a variety of conditions to confirm the genotypes specific to the strains.
The first tests done with the strains were to determine the range of spontaneous reversion for each of the strains. With each mutagenicity experiment the spontaneous reversion of the tester strains to histidine independence was measured and expressed as the number of spontaneous revertants per plate. This served as the background controls.
For all experiments, the pre-incubation procedure was used. In this procedure one vial of each tester strain was thawed and 20 µL of this culture was added to 6 mL of Oxoid Nutrient Broth #2. This solution was allowed to shake for 10 hours at 37°C. In the pre-incubation procedure, 0.1 mL of this overnight culture was added to each of the required number of sterile test tubes. To half of the tubes 0.5 mL of a 10% S-9 solution containing Aroclor 1254 induced rat liver extract (Molecular Toxicology Inc., Annapolis, MD), and MgCl2, KCl, glucose-6-phosphate, NADP, and sodium phosphate buffer (Sigma, St. Louis, Missouri) were added. To the other half of the tubes 0.5 mL of 0.2M sodium phospate buffer, pH 7.4, was used in place of the S-9 mixture (the - S9 samples). Finally 0.1 mL of the test solution containing either 0, 0.1, 0.5, 1, 5, 10, 50, 100, 250, or 500 µg/mL of the test compound was added. The 0.7 mL mixture was vonexed and then pre-incubated while shaking for 20 minutes at 37°C. After shaking, 2 mL of molten top agar supplemented with histidine and biotin were added to the 0.7 mL mixture and immediately poured onto a minimal glucose agar plate (volume of base agar was 20 mL). The top agar was allowed 30 minutes to solidify and then the plates were inverted and incubated for 44 hours at 37°C. After incubation the number of revertant colonies on each plate were counted.
Maron and Ames (1983) describe the conflicting views with regard to the statistical treatment of data generated from the test.

R17 = assay: r-17 bacteriophage assay: R17 treated with compound and UVA, remaining titer by plaque count on Hfr 3000 bacteria; type: cell-based; conditions: for R17 inactivation efficiency compared with AMT: varying concentration (Tables 7 and 8, FIGS. 6-10); for efficiency at inactivating R17 compared with AMT: constant concentration, varying doses of UV light 1.0-3.0 J/cm^2 (FIGS. 11-17)
Experimental: In the r-17 assay, the bacteriophage was placed in a solution with each compound tested and was then irradiated. The ability of the phage to subsequently infect bacteria and inhibit their growth was measured. The bacteriophage was selected for its relatively accessible nucleic acid such that the culture growth inhibition would accurately reflect nucleic acid damage by the test compounds. The bacteriophage assay for nucleic acid binding to test compounds offers a safe and inexpensive procedure to identify compounds likely to display efficient pathogen inactivation. Previous experiments support that the r-17 assay accurately measures HIV-1 sensitivity to similar compounds. […] Modified Eagles Medium (DMEM) to a final phage concentration of 10^9/mL. An aliquot (0.5 mL) was transferred to a 1.5 mL snap-top polyethylene tube. […] Louis, MO). The tubes were placed in a light device as described in EXAMPLE 1 and irradiated for between 1 and 10 minutes. […] To make the dilutions. a 0.100 mL aliquot of the irradiated solution of phage and test compound was added to the first dilution tube of 0.4 mL of media then 0.020 mL of this solution was added to the second tube of 0.5 mL medium (1:25). […] After the top agar hardened, the plates were incubated at 37 °C overnight. The plaque forming units were then counted the following morning and the titer of the phage remaining after phototreatment was calculated based on the dilution factors. The following controls were run: the "phage only" in which phage was not treated with test compound and not irradiated (listed as "starting titer" in the tables below); the "UV only" in which the phage was irradiated in the absence of test compound; and the "dark" control in which the phage/test compound solution was not irradiated before it was diluted and plated. Compounds described herein were also tested at a constant concentration for varying doses of UV light. […] The compound tested was added at the desired concentration and the samples were vortexed. […] Between each 1.0 J/cm^2 intervals, 100µL was removed from each sample and placed in the first corresponding dilution tube, then five sequential dilutions were performed for each compound tested, at all 3 irradiation doses, as described above in this example. […] The contents of each tube was poured into its own LB plate and the plates were incubated overnight at 37 °C. Plaques were counted by visual inspection the following morning.

HIV-1 = conditions: 1 Minute Irradiation
Experimental: Pathogen inactivation efficiency of several compounds described herein was evaluated by examining the ability of the compounds to inactivate cell-free virus (HIV). Inactivation of cell-free HIV was performed as follows.
As in the R17 assay, small aliquots of the compounds listed in TABLES 10 and 11, below, at the concentrations listed in the table, were added to stock HIV-1 to a total of 0.5 mL. The stock HIV (10^5 - 10^7 plaque forming units/mL) was in DMEM/15% FBS. […] Controls included HIV-I stock only, HIV-1 plus UVA only, and HIV-I plus the highest concentration of each psoralen tested, with no UVA. Post irradiation. all samples were store frozen at -70° C until assayed for infectivity by a microtiter plaque assay. Aliquots for measurement of residual HIV infectivity in the samples treated with a compound of the present invention were withdrawn and cultured.
Residual HIV infectivity was assayed using an MT-2 infectivity assay. […] The assay medium was 85% DMEM (with a high glucose concentration) containing 100 µg of streptomycin, 100 U of penicillin, 50 µg of gentamicin, and 1 µg of amphotericin B per mL, 15% FBS and 2 µg of Polybrene (Sigma Chemical Co., St. Louis, Mo.) per mL. Test and control samples from the inactivation procedure were diluted in 50% assay medium and 50% normal human pooled plasma. The samples were serially diluted directly in 96-well plates (Coming Glass Works, Coming, N.Y.). The plates were mixed on an oscillatory shaker for 30 seconds and incubated at 37°C in a 5% CO2 atmosphere for 1 to 18 hours. […] After an additional 1 hour of incubation at 37°C in 5% CO2, 0.075 mL of assay medium containing 1.6% SeaPlaque agarose (FMC Bioproducts, Rockland, Maine) and prewarmed to 38.5°C was added to each well. The plates were kept at 37°C for a few minutes until several plates had accumulated and then centrifuged in plate carriers at 600 x g for 20 minutes in a centrifuge precooled to 10°C. In the centrifuge, cell monolayers formed prior to gelling of the agarose layer. The plates were incubated for 5 days at 37°C in 5% CO2 and stained by the addition of 0.05 mL of 50 µg/mL propidium iodide (Sigma Chemical Co.) in phosphate-buffered saline (pH 7.4) to each well. After 24 to 48 hours, the red fluorescence-stained microplaques were visualized by placing the plates on an 8,000 µW/cm^2 304 nm UV light box (Fotodyne, Inc., New Berlin, Wis.). The plaques were counted at a magnification of x20 to x25 through a stereomicroscope.

[2] = 64 µM, HIV Starting Titer Approximately 5 Logs (Table 10)
[3] = 16 µM, HIV Starting Titer Approximately 5 Logs (Table 10)
[4] = 32 µM, HIV Starting Titer Approximately 5 Logs (Table 10)
[5] = 16 µM, HIV Starting Titer Approximately 5.4 Logs (Table 11)
[6] = 32 µM, HIV Starting Titer Approximately 5.4 Logs (Table 11)
[7] = 64 µM, HIV Starting Titer Approximately 5.4 Logs (Table 11)

Compound: Nc1c2ccccc2nc2ccccc12 [9-Amino-acridine, reference compound]
- revertant colonies, TA98 -S9 ([1]; 10 µg/plate): 284
- revertant colonies, TA1537 -S9 ([1]; 10 µg/plate): 284

Compound: Cc1oc2c(C)c3oc(=O)cc(C)c3cc2c1CNCCN [Compound 1, 4'-(4-amino-2-aza)butyl-4,5',8-trimethylpsoralen]
- Logs Killed (R17; Experiment 2, compound only (3.2 µM), no uva): 0.1
- HIV Log Kill (HIV-1; [2]): 2.1
- revertant colonies, TA100 +S9 ([1]; 5 µg/plate): -24
- revertant colonies, TA100 -S9 ([1]; 5 µg/plate): 292
- revertant colonies, TA1538 +S9 ([1]; 5 µg/plate): 21
- revertant colonies, TA1538 -S9 ([1]; 5 µg/plate): 10
- revertant colonies, TA100 +S9 ([1]; 10 µg/plate): -22
- revertant colonies, TA100 -S9 ([1]; 10 µg/plate): 337
- revertant colonies, TA1538 +S9 ([1]; 10 µg/plate): 22
- revertant colonies, TA1538 -S9 ([1]; 10 µg/plate): 12
- frameshift mutagenicity (Ames, summary) ([1]; two-fold or greater increase in revertants above background and dose dependent response): weak frameshift mutagen in TA1538 at 5 µg/plate in the presence of S9
- base-substitution mutagenicity (Ames, summary) ([1]; two-fold or greater increase in revertants above background and dose dependent response, TA100, TA102): displayed mutation in the TA100 strain, but only in the absence of S9

Compound: Cc1oc2c(C)c3oc(=O)cc(C)c3cc2c1CNCCCN [Compound 5, 4'-(5-amino-2-aza)pentyl4,5',8-trimethylpsoralen]
- R17 Log Kill (R17; 16 µM, 1 Minute irradiation = 1.2 J/cm^2, Starting Titer Approx. 7.1 Logs (Table 8)): 5.6
- R17 Log Kill (R17; 32 µM, 1 Minute irradiation = 1.2 J/cm^2, Starting Titer Approx. 7.1 Logs (Table 8)): >6.1
- R17 Log Kill (R17; 64 µM, 1 Minute irradiation = 1.2 J/cm^2, Starting Titer Approx. 7.1 Logs (Table 8)): >6.1
- R17 inactivation efficiency compared with AMT (R17): significantly higher inactivation efficiency than does AMT
- HIV Log Kill (HIV-1; [3]): 0.9
- HIV Log Kill (HIV-1; [4]): 1.3
- HIV Log Kill (HIV-1; [2]): >2.6

Compound: Cc1oc2c(C)c3oc(=O)cc(C)c3cc2c1COCCOCCN [Compound 7, 4'-(7-amino-2,5-oxa)heptyl-4.5',8-trimethylpsoralen]
- R17 Log Kill (R17; 16 µM, 1 Minute Irradiation, Starting Titer Approx. 7.1 Logs (Table 9)): >6
- R17 Log Kill (R17; 32 µM, 1 Minute Irradiation, Starting Titer Approx. 7.1 Logs (Table 9)): >6
- R17 Log Kill (R17; 64 µM, 1 Minute Irradiation, Starting Titer Approx. 7.1 Logs (Table 9)): >6
- HIV Log Kill (HIV-1; [3]): 0.8
- HIV Log Kill (HIV-1; [4]): 2.1
- HIV Log Kill (HIV-1; [2]): 3.5

Compound: Cc1oc2c(C)c3oc(=O)cc(C)c3cc2c1COCCOCCNCCCCN [Compound 8, 4'-(12-amino-8-aza-2,5-dioxa)dodecyl-4,5',8-trimethylpsoralen]
- HIV Log Kill (HIV-1; [3]): 1.1
- HIV Log Kill (HIV-1; [4]): 1.9
- HIV Log Kill (HIV-1; [2]): 3.7

Compound: Cc1oc2c(C)c3oc(=O)cc(C)c3cc2c1CNCCCOCCCCOCCN [Compound 9, 4'-(13-amino-2-aza-6,11-dioxa)tridecyl-4,5',8-trimethylpsoralen]
- HIV Log Kill (HIV-1; [5]): 0.8
- HIV Log Kill (HIV-1; [6]): 1.4
- HIV Log Kill (HIV-1; [7]): 2.7

Compound: Cc1oc2c(C)c3oc(=O)cc(C)c3cc2c1CNCCCCCN [Compound 10, 4'-(7-amino-2-aza)heptyl-4,5',8-trimethylpsoralen]
- efficiency at inactivating R17 compared with AMT (R17): more efficient at inactivating R17 than was AMT
- HIV Log Kill (HIV-1; [5]): 2.0
- HIV Log Kill (HIV-1; [6]): >3.5
- HIV Log Kill (HIV-1; [7]): >3.5

Compound: Cc1oc2c(C)c3oc(=O)cc(C)c3cc2c1CNCCCNCCCN [Compound 12, 4'-(9-amino-2,6-diaza)nonyl-4.5',8-trimethylpsoralen]
- efficiency at inactivating R17 compared with AMT (R17): more efficient at inactivating R17 than was AMT
- HIV Log Kill (HIV-1; [5]): 0.4
- HIV Log Kill (HIV-1; [6]): 0.8
- HIV Log Kill (HIV-1; [7]): 1.3

Compound: Cc1oc2c(C)c3oc(=O)cc(C)c3cc2c1CNCCCNCCCCNCCCN [Compound 15, 4'-(14-amino-2,6,11-triaza)tetradecyl-4,5',8-trimethylpsoralen]
- efficiency at inactivating R17 compared with AMT (R17): more efficient at inactivating R17 than was AMT

Compound: Cc1cc(=O)oc2c(C)c3oc(CNCCN)c(C)c3cc12 [Compound 16, 5'-(4-amino-2-aza)butyl4,4',8-trimethylpsoralen]
- R17 inactivation efficiency compared with AMT (R17): significantly higher inactivation efficiency than does AMT

Compound: OO [hydrogen peroxide, reference compound]
- revertant colonies, TA102 -S9 ([1]; Salmonella typhimurium, pH 7.4): 660

Compound: [N-]=[N+]=[N-] [sodium azide, reference compound]
- revertant colonies, TA100 -S9 ([1]; 1.5 µg/plate (positive control)): 965
- revertant colonies, TA1538 -S9 (Table 18 (A)) ([1]; 1.5 µg/plate (positive control), Table 18 (A), background 126): 965
